The source of these data is US20090105282A1, “METHODS OF TREATING BENIGN PROSTATIC HYPERPLASIA OR LOWER URINARY TRACT SYMPTOMS BY USING PDE 5 INHIBITORS” (Schering-Plough Corporation, priority 2005, published 2009).

Structures are written as SMILES. A value given as a limit tells only on which side of the number the result lay.

For this assay, the target named is PDE 5 (Homo sapiens, UniProt O76074). Briefly: PDE 5 enzyme inhibition (PDE 5 IC50). The class given is biochemical.

In general, IC50 refers to the concentration needed to halve the response being measured. As for `CCn1c(=O)c2c(nc(NC3CCCCC3)n2Cc2ccc3c(c2)OCO3)n(CC)c1=O` [Compound 168], the half-inhibitory concentration (IC50) was not above 5 nM.

As for `CCn1c(=O)c2c(nc(NC3CCCCC3)n2Cc2ccc(OC)c(Cl)c2)n(CCO)c1=O` [Compound 105], the IC50 was not above 5 nM.

In turn, `COc1ccc(Cn2c(NC3CC4CCC3C4)nc3c2c(=O)n(C)c(=O)n3C)cc1` (stereo not drawn) [Compound 77] showed an IC50 of 15 to 100 nM.

Consider `CCn1c(=O)c2c(nc(NC3CCOCC3)n2Cc2ccc(OC)c(Br)c2)n(CCO)c1=O` [Compound 186], for which the IC50 is not above 5 nM.

In turn, `CCn1c(=O)c2c(nc(NC3CCCCC3)n2Cc2ccc(S(N)(=O)=O)cc2)n(CC)c1=O` [Compound 119] yielded an IC50 not above 5 nM.

`CCn1c(=O)c2c(nc(NC3CCCCC3)n2Cc2ccc(O)c(C)c2)n(CC)c1=O` [Compound 169] registered a half-maximal inhibitory concentration (IC50) not above 5 nM.

For `CCn1c(=O)c2c(nc(N[C@@H]3CCCC[C@@H]3O)n2Cc2ccc(OC)c(Br)c2)n(CC)c1=O` [Compound 124], the IC50 is not above 5 nM.

`CCn1c(=O)c2c(nc(NC3CCCCC3)n2Cc2ccc(OC)cc2)n(CCO)c1=O` [Compound 103] displayed an IC50 not above 5 nM.

In the case of `Cn1c(=O)c2c(nc(NC3CCCCC3)n2Cc2ccccc2Cl)n(C)c1=O` [Compound 148], the concentration for half-maximal inhibition (IC50) fell in the range of 15 to 100 nM.

In the case of `CCn1c(=O)c2c(nc(NC3CCCCC3)n2Cc2ccc(O)c(Cl)c2)n(CCO)c1=O` [Compound 107], the concentration for half-maximal inhibition (IC50) was not above 5 nM.

Compound `CCn1c(=O)c2c(nc(NC3CCOCC3)n2Cc2ccc(S(N)(=O)=O)cc2)n(CC)c1=O` [Compound 188] yielded an IC50 not above 5 nM.

With `CCn1c(=O)c2c(nc(N[C@@H]3CCC[C@H]3O)n2Cc2ccc(OC)c(Cl)c2)n(CCO)c1=O` [Compound 106], the half-inhibitory concentration (IC50) is not above 5 nM.

On to `CCn1c(=O)c2c(nc(NC3CCCCC3)n2Cc2ccc(OC)c(Br)c2)n(CCO)c1=O` [Compound 117], for which the half-inhibitory concentration (IC50) is not above 5 nM.

For the compound `Cc1cc(Cn2c(NC3CCCCC3)nc3c2c(=O)n(C)c(=O)n3C)ccc1O` [Compound 147], the IC50 lay in the range of 15 to 100 nM.

On to `CCn1c(=O)c2c(nc(NC3CCCCC3)n2Cc2cccc(O)c2)n(CC)c1=O` [Compound 170], for which the IC50 is not above 5 nM.

Compound `CCn1c(=O)c2c(nc(N[C@@H]3CCC[C@H]3O)n2Cc2ccc(OC)c(Br)c2)n(CC)c1=O` [Compound 123] displayed a half-maximal inhibitory concentration (IC50) not above 5 nM.

The compound `CCn1c(=O)c2c(nc(NC3CCCC3)n2Cc2ccc(O)cc2)n(C)c1=O` [Compound 79] returned a 50% inhibitory concentration (IC50) of 5 to 10 nM.

`Cn1c(=O)c2c(nc(NC3CCCCC3)n2Cc2cccc(O)c2)n(C)c1=O` [Compound 146]: the IC50 lay within 15 to 100 nM.

In turn, `CCn1c(=O)c2c(nc(NC3CCCCC3)n2Cc2ccc(O)c(Br)c2)n(CCO)c1=O` [Compound 116] registered an IC50 not above 5 nM.

With `CCn1c(=O)c2c(nc(N[C@@H]3CCC[C@H]3O)n2Cc2ccc(O)c(Br)c2)n(CCO)c1=O` [Compound 118], the 50% inhibitory concentration (IC50) is not above 5 nM.

As to `CCn1c(=O)c2c(nc(NC3CCCCC3)n2Cc2ccc(O)cc2)n(CCO)c1=O` [Compound 104], the half-inhibitory concentration (IC50) was not above 5 nM.

Compound `CCN(CC)CCn1c(=O)n(CC)c(=O)c2c1nc(NC1CCCCC1)n2Cc1ccc(OC)c(Br)c1` [Compound 187] showed a 50% inhibitory concentration (IC50) not above 5 nM.

Turning to `Cn1c(=O)c2c(nc(NC3CCCCC3)n2Cc2ccc(O)cc2)n(C)c1=O` [Compound 37], the IC50 fell in the range of 5 to 10 nM.

Compound `CCn1c(=O)c2c(nc(NC3CCCCC3)n2Cc2ccc(OC)c(Br)c2)n(CC)c1=O` [Compound 122] gave an IC50 not above 5 nM.
